Laboratory results published in patent publication US5760240A, “Taxoid synthesis” (The Scripps Research Institute, priority 1995, dated 1998).

Columns and labels:
HT-29 = assay: Cytotoxicity against tumor cell lines: HT-29; assay type: cell-based; details: Homo sapiens; cell line HT-29
Ovcar 3 = assay: Cytotoxicity against tumor cell lines: Ovcar 3; assay type: cell-based; details: Homo sapiens; cell line Ovcar 3
UCLA-P3 = assay: Cytotoxicity against tumor cell lines: UCLA-P3; assay type: cell-based; details: Homo sapiens, UCLA P-3; cell line UCLA-P3
L-1210 = assay: Cytotoxicity against tumor cell lines: L-1210; assay type: cell-based; details: Mus musculus, L1210; cell line L-1210
786-0 = assay: Cytotoxicity against tumor cell lines: 786-0; assay type: cell-based; details: Homo sapiens; cell line 786-0
SK-Mel-28 = assay: Cytotoxicity against tumor cell lines: SK-Mel-28; assay type: cell-based; details: Homo sapiens; cell line SK-Mel-28
SK-NH-SH = assay: Cytotoxicity against tumor cell lines: SK-NH-SH; assay type: cell-based; details: cell line SK-NH-SH
BT-549 = assay: Cytotoxicity against tumor cell lines: BT-549; assay type: cell-based; details: Homo sapiens; cell line BT-549
A-549 = assay: Cytotoxicity against tumor cell lines: A-549; assay type: cell-based; details: Homo sapiens, A549; cell line A-549
SIH-A = assay: Cytotoxicity against tumor cell lines: SIH-A; assay type: cell-based; details: Homo sapiens, SiHa; cell line SIH-A
[1] = test system: a variety of tumor cell lines; assay: Cytotoxicity against a variety of tumor cell lines (in words); details: 15 and 15' under the same conditions

CC(=O)O[C@H]1C(=O)[C@@]2(C)[C@H]([C@H](OC(=O)c3ccccc3)[C@]3(O)C[C@H](OC(=O)[C@H](O)[C@@H](NC(=O)c4ccccc4)c4ccccc4)C(C)=C1C3(C)C)[C@]1(OC(C)=O)CO[C@@H]1C[C@@H]2O [Taxol, reference compound]
IC50 (HT-29): 51 nM | IC50 (Ovcar 3): 0.62 nM | IC50 (UCLA-P3): 6.4 nM | IC50 (L-1210): 7 nM | IC50 (786-0): 2200 nM | IC50 (SK-Mel-28): 120 nM | IC50 (SK-NH-SH): 0.62 nM | IC50 (BT-549): 0.5 nM

CC(=O)O[C@@H]1C2=C(C)[C@@H](OC(=O)[C@H](O)[C@@H](NC(=O)c3ccccc3)c3ccccc3)C[C@@](O)([C@@H](OC(=O)c3ccccc3)c3ccccc3[C@H]1OC(C)=O)C2(C)C [Compound 15]
IC50 (HT-29): 129 nM | IC50 (Ovcar 3): 280 nM | IC50 (UCLA-P3): 296 nM | IC50 (A-549): 645 nM | IC50 (L-1210): 1110 nM | IC50 (SIH-A): 1290 nM | IC50 (786-0): 1930 nM | IC50 (SK-Mel-28): 2710 nM | IC50 (SK-NH-SH): 4910 nM | IC50 (BT-549): 5300 nM | cytotoxicity against a variety of tumor cell lines [1]: significant cytotoxicity | cytotoxicity against a variety of tumor cell lines ([1]; listed as 15'): essentially no cytotoxicity
